Here are results for four compounds from patent US20100184809A1, “Heterocyclic FXR Binding Compounds” (PHENEX PHARMACEUTICALS AG, priority 2006, published 2010).

Values after ≈ are worked out from the molar mass of the structure shown.

Series [1] in a line: Pharmacokinetic parameters in C57BL/6 mice (plasma concentration after peroral gavage). Type of series: in vivo. Particulars: mouse, oral, perorally by gavage 10 mg/kg, male C57BL/6 mice, read-out: mean plasma conc. As to the method:
Information on the rate and extent of absorption of the test compounds were generated using two distinct animal models, C57/BI/6J and C57/BLKS/J(mLepr^db/db) mice. Compounds were applied perorally by gavage at 10 mg/kg each to male 8 weeks old C57BL/6 mice and plasma concentrations of the test items were determined by LC-MS/MS (Table 11). Alternatively, compounds were applied perorally by gavage at 25 mg/kg each to 16 weeks old male C57/BLKS/J(mLepr^db/db) mice and plasma concentrations of the test items were determined 120 min after gavage by LC-MS/MS (Table 12).
A solution of 20 mg/ml of each test item was produced by diluting them in the vehicle, 30% HPBCD (hydroxypropyl-beta-cyclodextrin) in 20 mM phosphate buffer pH7.0 (v/w). These solutions were stirred overnight at room temperature and heated to 60° C. for 10 minutes, resulting in a full solubilization. The application was performed by administrating the solution perorally to the mice, with an application volume of 10 ml/kg. For each time point five mice were used. Blood samples were obtained by sacrificing animals for each time point followed by cardiac puncture. Blood samples were treated with Li-heparin during collection procedure and stored on ice until centrifugation at 645 g (5 min, 4° C.). Plasma was harvested and kept at −20° C. until being assayed. To 50 μl of mouse plasma sample 6 μl acetonitrile containing an internal standard was added. Samples were vigorously shaken and centrifuged for 10 minutes at 6000 g and 20° C. An aliquot of the particle-free supernatant was transferred to 200 μl sampler vials and subsequently subjected to LC MS/MS for quantification.

Series [2] in a line: Aqueous solubility assay, Protocol B, shake-flask method. The format is physicochemical. Particulars: aqueous buffer, 10 mM PBS buffer pH 7.4, 1% MeOH, room temperature, read-out: Aqueous solubility pH 7.4 (μM) (±standard deviation), shake-flask method. The protocol:
Protocol B, shake-flask method:
Sample preparation: Sample and standard solution preparation is performed by mixing equal volumes of acetonitrile containing the internal standard (1 μM final concentration) with sample and calibration standard solutions (100 μl). After vigorously shaking (10 seconds) the samples are centrifuged (6000 g) for 5 minutes at 20° C. Aliquots of the particle-free supernatants are transferred to 200 μl sample vials and subsequently subjected to LC-MS/MS. Assay procedure: Test concentration was 100 μM in 10 mM PBS buffer pH 7.4 with a final MeOH concentration of 1%. The volume of the incubation solution was 500 μl. Depending on each compound's solubility in MeOH, the stock concentration and the incubation concentration was adapted. The test solutions in quadruplicates were shaken at 300 rpm over a 20 hours period at room temperature, followed by centrifugation at 20000 g for 30 minutes to separate the solid phase. 100 μl of particle free sample are added to 100 μl acetonitrile containing the internal standard. The aqueous solubility of the compounds was determined by measuring the concentration of the PBS buffer supernatant by HPLC-MS/MS.

The nature of series [3]: Plasma protein binding assay (equilibrium dialysis). The format is in vitro ADME. Conditions: 37° C., extrapolated fraction unbound. As to the method: Equilibrium dialysis is used to determine the extent of binding of a compound to plasma proteins. A semi-permeable membrane separates a protein-containing compartment from a protein-free compartment. The system is allowed to equilibrate at 37° C. The test compound present in each compartment is quantified by LC-MS/MS. The extent of binding is reported as a fraction unbound (fu) value which is calculated as fu=1−(PC−PF)/PC. PC=Test compound concentration in protein-containing compartment. PF=Test compound concentration in protein-free compartment. In addition to using whole plasma, the plasma protein binding assay can be performed using two other ratios of plasma (10% or 50% plasma in buffer v/v). The following equations are used to convert from a fraction unbound at 10% or 50% to a fraction unbound at 100%: […]

Series [4] is described as follows: Mouse microsomal stability assay. The format is in vitro ADME. Particulars: pH 7.4; mouse liver microsomes, 37° C. As to the method: In vitro assays were performed to evaluate the metabolic stability of test items in liver microsomes originating from mouse. Preparation of working standards of test items: Working solutions were prepared for each calibration level by appropriate dilution of the corresponding stock solution, depending on each compound's solubility in acetonitrile or acetonitrile/water. Calibration standards were prepared by spiking 196 μl standard matrix with 4 μl of the corresponding working solution. The standard matrix consists of 0.15 mg/ml of microsomal protein in phosphate buffer (100 mM pH 7.4), the final standard solutions contain 2% acetonitrile. The samples and standard solutions were extracted with ethyl acetate, isolation of the compounds was performed by addition of 600 μl ethyl acetate containing the internal standard (0.1 μM) to 200 μl sample and calibration standard. After vigorously shaking (10 minutes) and centrifugation (5000 g) the aqueous phase was separated by freezing in an acetone/dry ice bath and the organic phase is evaporated to dryness using a vacuum centrifuge. Samples were reconstituted in 200 μl acetonitrile/water mix (1:1 v/v) and subsequently subjected to LC-MS/MS. The incubation solution (180 μl) consisted of 90 μl of a microsomal suspension of 0.33 mg/ml of protein in phosphate buffer 100 mM pH 7.4 and 90 μl NADP-regenerating system. The reaction was initiated by the addition of 20 μl of test compound (in 20% acetonitrile) to the preincubated microsomes/buffer mix at 37° C. 200 μl samples were removed from the incubation after 0, 5, 10, and 30 minutes and processed for ethyl acetate extraction as described above. Negative controls using boiled microsomes (boiling water bath, 25 minutes) without regenerating system were run in parallel. The amount of compound in the samples is expressed as percentage of remaining compound compared to time point zero (=100%). These percentages were plotted against the corresponding time points. Intrinsic clearance (CLint) and half-life (t1/2) estimates were determined using the rate of parent disappearance and following formula (1) and (2). (1) CLint=(−k)×V×fu. (2) t1/2=In2/−k. Where CLint=intrinsic clearance [μl/min/mg protein], t1/2=half life [min], k=slope from the linear regression of log [test compound] versus time plot [1/min]. V=6666.7; fu=unbound fraction in the blood. Applying this protocol gave microsomal stabilities for examples and reference compounds as listed below in Table 9: […]

With `CC(C)c1onc(-c2c(Cl)cccc2Cl)c1COc1ccc(/C=C/c2cccc(C(=O)O)c2)c(Cl)c1` [Compound B, reference compound], in series [1], the concentration at 15 min is 1600 ng/mL and the concentration at 45 min worked out at 1650 ng/mL. Further, the solubility at 20 h in series [2] was found to be 17.7 µM (≈ 9.61 µg/mL).
Take `Cc1nc(OCc2c(-c3c(Cl)cccc3Cl)noc2C(C)C)ccc1N(C)S(=O)(=O)c1ccc(C(=O)O)cc1` [Example 4, 4-(N-(6-((3-(2,6-dichlorophenyl)-5-isopropylisoxazol-4-yl)methoxy)-2-methylpyridin-3-yl)—N-methylsulfamoyl)benzoic acid]: in series [3], the unbound share (fraction unbound) was 0.0003.
Take `CC(C)c1onc(-c2c(Cl)cccc2Cl)c1COc1ccc(N(C)C(=O)c2ccc(C(=O)O)cc2)c(C(F)(F)F)n1` [Example 7, N-{6-[3-(2,6-dichloro-phenyl)-5-isopropyl-isoxazol-4-ylmethoxy]-2-trifluoromethyl-pyridin-3-yl}-N-methyl-terephthalamic acid]: the unbound share (fraction unbound) in series [3] is 0.005.
In the case of `CC(C)c1onc(-c2c(Cl)cccc2Cl)c1COc1ccc(N(C)Cc2ccc(C(=O)O)cc2)c(C(F)(F)F)n1` [Example 28, 4(((6-((3-(2,6-Dichlorophenyl)-5-isopropylisoxazol-4-yl)methoxy)-2-(trifluoromethyl)pyridin-3-yl)(methyl)amino)methyl)benzoic acid], the melting point was in the range of 96.1 to 97.1 °C. In series [4], this compound yielded a half-life of 38 min and a microsomal CLint of 120 µL/min/mg. In addition, in series [1], the concentration at 15 min was determined as 1780 ng/mL and the concentration at 45 min is 2230 ng/mL.
